Laboratory results taken from patent US4123552A, “Compositions for preserving crops and animal feedstuffs” (Chevron Research Company, priority 1975, dated 1978).

Experiments:
All Species = assay: Control of seed- and soil-borne pathogens during storage of corn seeds (Table IV), all species; type: cell-based, Rhizopus, Penicillium, Fusarium; details: relative to untreated check
Procedure: A variety of bis-esters was tested for the control of seed- and soil-borne pathogens during storage of corn seeds (Zea mays) by the following procedure.
(§1) A small amount of acetone was added to the bis-ester to make specific volume, plus a small portion of emulsifier making it into a slurry. This preparation was diluted with water to the desired concentration. Solution was then evenly distributed on the wall of a glass jar. High moisture feedcorn with natural infection was stored frozen after harvest until used for this test. The corn seeds were rolled in the jar until they were coated and the solution was completely absorbed on them.
(§2) Following the treatment, the corn seeds were plated on Potato Dextrose Agar plates. For comparison, untreated corn seeds were also plated. Propionic acid was also tested for comparison.
The percentage control of all species was based on the total sum average of mycelial growth in millimeters of all species in the treated seeds relative to the untreated check. The fast growing Rhizopus was evaluated 7 days after treatment, the other fungi after 14 days.

Rhizopus sp. = assay: Concentration for 90% control of pathogen on corn seeds (Table V), Rhizopus sp.; type: cell-based; details: 5 days after treatment
Procedure: as §1, §2
(§3) A variety of bis-esters was tested for the control of seed- and soil-borne pathogens during the storage of corn seeds (Zea mays) by the procedure of Example 11. For comparison, propionic acid was also tested.
(§4) Control of each pathogen was determined by mycelial growth in millimeters in the treated seeds relative to untreated seeds. Mycelial growth of Rhizopus species and Fusarium species was evaluated 5 days after treatment. Mycelial growth in Aspergillus niger was evaluated 14 days after treatment.
(§5) The bis-ester tested and the concentration of active ingredient in ounces per 100 lbs. of corn seeds for 90 percent control of each pathogen species are tabulated in Table V.

Fusarium sp. = assay: Concentration for 90% control of pathogen on corn seeds (Table V), Fusarium sp.; type: cell-based; details: 5 days after treatment
Procedure: as §1, §2, §3, §4, §5

Aspergillus niger = assay: Concentration for 90% control of pathogen on corn seeds (Table V), Aspergillus niger; type: cell-based; details: corn seeds; 14 days after treatment
Procedure: as §1, §2, §3, §4, §5

high moisture corn = assay: Preservation of high moisture corn in ventilated cans (time until temperature exceeds room temperature); details: for Weeks Effective: corn 25 percent moisture, 70-72 F
Procedure: High moisture corn (25 percent moisture) was treated with various methylene and polyoxymethylene esters of propionic or acetic acid of various dosages. The esters were applied to the corn in a mixer for one minute at 32 RPM. Three replicate two gallon ventilated cans were filled with the treated corn. The cans were then held at a temperature of 70°-72° F. Temperature readings were taken semi-weekly by means of thermocouples in the center of each can. When the temperature exceeded constant room temperature for at least an 8-hour period the treatment was considered broken.

[1] = Solubility of insecticides in methylene bispropionate; type: physicochemical; details: solvent methylene bispropionate
Procedure: Methylene bispropionate was tested as a solvent for various insecticides. […] O,S-dimethylN-acetyl phosphoramidothioate was soluble in methylene bispropionate to the extent of 5 percent by weight. Chlordane was soluble in methylene bispropionate to the extent of at least 75 percent by weight.

For `CC(C)C(=O)OCOC(=O)C(C)C` [Methylene Bisisobutyrate], the “% Control All Species” value (All Species; 1.0 Oz./100 Lbs.) was 98%, the “% Control All Species” value (All Species; 2.5 Oz./100 Lbs.) was 99% and the “% Control All Species” value (All Species; 6.4 Oz./100 Lbs.) was 100%. The “% Control All Species” value (All Species; 16 Oz./100 Lbs.) was 98%, the “Conc. for 90% Control, Rhizopus sp.” value (Rhizopus sp.) was 3.2 oz./100 lbs and the “Conc. for 90% Control, Fusarium sp.” value (Fusarium sp.) was 2.0 oz./100 lbs. For the same compound, the “Conc. for 90% Control, Aspergillus niger” value (Aspergillus niger) was “* (No Control at 2.5 oz./100 lbs.)”.

In the case of `CCC(=O)OCOCOC(=O)CC` [Oxybismethylene Propionate, Oxybismethylene Bispropionate], the “Weeks Effective” value (high moisture corn; 2 Oz/Bu) is reported as 6 Weeks, the “Weeks Effective” value (high moisture corn; 3 Oz/Bu) is reported as 12 Weeks and the “Weeks Effective” value (high moisture corn; 4 Oz/Bu) is reported as > 12 Weeks. For the same compound, the “Weeks Effective” value (high moisture corn; 5 Oz/Bu) was > 12 Weeks and the “effectiveness in preservation of high moisture corn (in words)” value (high moisture corn; from Table II) was “remarkably superior to propionic acid in the preservation of high moisture corn”.

In the case of `CCOC(=O)CC(SP(=S)(OC)OC)C(=O)OCC` (stereo not drawn) [Malathion, S-[1,2-bis(ethoxycarbonyl)ethyl]-O,O-dimethyl phosphorodithioate], the “miscibility with methylene bispropionate (in words)” value [1] is reported as “miscible with methylene bispropionate in all proportions”.

In the case of `CCOP(=S)(OCC)Oc1ccc([N+](=O)[O-])cc1` [parathion, O,O-diethyl-O-p-nitrophenyl phosphorothioate], the “miscibility with methylene bispropionate (in words)” value [1] is reported as “miscible with methylene bispropionate in all proportions”.

For `CC(=O)OCOCOC(C)=O` [Oxybismethylene Acetate, Oxybismethylene Bisacetate], the “Weeks Effective” value (high moisture corn; 3 Oz/Bu) was 5 Weeks and the “Weeks Effective” value (high moisture corn; 6 Oz/Bu) was > 12 Weeks.

With `CCC(=O)OC(OC(=O)CC)C(Cl)(Cl)Cl` [2,2,2-Trichloroethylidene Bispropionate] the “% Control All Species” value (All Species; 1.0 Oz./100 Lbs.) was 8%, the “% Control All Species” value (All Species; 2.5 Oz./100 Lbs.) was 54% and the “% Control All Species” value (All Species; 6.4 Oz./100 Lbs.) was 74%. The “% Control All Species” value (All Species; 18 Oz./100 Lbs.) was 89%.

With `CCC(=O)OC(OC(=O)CC)c1ccccc1` [Benzylidene Bispropionate] the “% Control All Species” value (All Species; 1.0 Oz./100 Lbs.) was 46%, the “% Control All Species” value (All Species; 2.5 Oz./100 Lbs.) was 54% and the “% Control All Species” value (All Species; 6.4 Oz./100 Lbs.) was 79%. For the same compound, the “% Control All Species” value (All Species; 16 Oz./100 Lbs.) was 91%.

For `CCCC(=O)OCOCOC(=O)CCC` [Oxybismethylene Bisbutyrate], the “% Control All Species” value (All Species; 1.0 Oz./100 Lbs.) was 100%, the “% Control All Species” value (All Species; 2.5 Oz./100 Lbs.) was 100% and the “% Control All Species” value (All Species; 6.4 Oz./100 Lbs.) was 100%. The “% Control All Species” value (All Species; 16 Oz./100 Lbs.) was 100%, the “Conc. for 90% Control, Rhizopus sp.” value (Rhizopus sp.) was 1.1 oz./100 lbs and the “Conc. for 90% Control, Fusarium sp.” value (Fusarium sp.) was 1.0 oz./100 lbs. For the same compound, the “Conc. for 90% Control, Aspergillus niger” value (Aspergillus niger) was 0.57 oz./100 lbs.
